Results from patent US20240279302A1, “OLFACTORY RECEPTOR EXPRESSING METHOD AND RESPONSE MEASUREMENT METHOD” (Kao Corporation, priority 2021, published 2024).
Substitutions are numbered along the chain they refer to.

T1: OR2T11 (Homo sapiens, UniProt Q8NH01)
T1 sequence (Q8NH01 1-316): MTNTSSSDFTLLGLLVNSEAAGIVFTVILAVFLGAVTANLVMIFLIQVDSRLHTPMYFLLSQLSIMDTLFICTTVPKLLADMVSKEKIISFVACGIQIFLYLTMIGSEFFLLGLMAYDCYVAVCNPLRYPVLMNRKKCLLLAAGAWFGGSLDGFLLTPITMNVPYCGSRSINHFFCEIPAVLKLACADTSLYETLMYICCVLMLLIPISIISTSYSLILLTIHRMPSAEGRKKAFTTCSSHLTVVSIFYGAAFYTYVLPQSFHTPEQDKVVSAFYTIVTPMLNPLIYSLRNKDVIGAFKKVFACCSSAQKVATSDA

B1: consensus OR2T27: consensus olfactory receptor polypeptide (protein)
chain: MEWGNYSMYADFVLLGLFSNTRFPWLLFALILLVFVISIASNTVMIILIHIDSRLHTPMYFLLSQLSLMDILYISTIVPKMLVDQVMGQRAISFAGCTAQHFLYLTLAGAEFFLLGLMSYDRYVAICNPLRYPVLMSRKVCLLIVAAAWLGGSIDGFLLTPVTMQFPFCASREINHFFCEVPALLKLSCTDTSAYETAMYVCCIMMLLIPFSVISASYTRILITVYRMSEAEGRRKAVATCSSHMVVVSLFYGAAMYTYVLPHSYHTPEQDKAVSAFYTILTPMLNPLIYSLRNKDVTGALQKALGRCVSSGKVTTF
modifications: OR2T27 consensus-c
notes: consensus olfactory receptor polypeptide
B2: consensus OR2T4: consensus olfactory receptor polypeptide (protein)
chain: MANITWMANHTGWSDFILVGLFRQSKHPALLCVVIFVVFLMALSGNAVLILLIHSDAHLHTPMYFFISQLSLMDMMYISVTVPKMLLDQVMGVNKISAPECGMQMFLYVTLAGSEFFLLATMAYDRYVAICHPLRYPVLMNHRVCLFLASGCWFLGSVDGFTFTPITMTFPFCRSREIHHFFCEVPAVLKLSCSDTSLYEIFMYLCCVLMLLIPVTVISSSYLFILLTIHRMNSAEGRKKAFATCSSHMTVVILFYGAAIYTYMLPSSYHTPEKDMMVSVFYTILTPVLNPLIYSLRNKDVMGALKKMLNVGPVFQETMK
modifications: OR2T4 consensus-c
notes: as for B1
B3: consensus OR2T29: consensus olfactory receptor polypeptide (protein)
chain: MANITWMANHTGRSDFILVGLFSQSKHPALLCVVIFVVFLMALSGNAILILLIHSDAHLHTPMYFFISQLSLMDVMYISVTVPKMLMDQVMGVNKISAPECGMQMFLYLTLAGSEFFLLAAMAYDRYVAICHPLRYPVLMNHRVCLLLVSGCWFLGSVDGFMLTPITMTFPFCRSREIHHFFCEVPAVMKLSCSDTSLYETLMYLCCVLMLLIPVTVISSSYSFILLTIHRMNSAEGRKKAFATCSSHMTVVILFYGAAVYTYMLPSSYHTPEKDMMVSVFYTILTPVLNPLIYSLRNKDVTGALKKMLNVGSVFQETIK
modifications: OR2T29 consensus-c
notes: as for B1
B4: consensus OR2T5: consensus olfactory receptor polypeptide (protein)
chain: B3 chain with R13K, V149A
modifications: OR2T5 consensus-c
notes: as for B1
B5: consensus OR4E2: consensus olfactory receptor polypeptide (protein)
chain: MDSLNQTRVTEFVFLGLTDNWVLEILFFMAFSAIYVLTLLGNILIIVTIVFTPRLHTPMYFFLSNLSFIDICHSSVTVPKMLEGLLLERKTISFDNCIAQLFFLHLFACAEIFLLTIMAYDRYVAICTPLHYPNVMNMRVCVQLVFALWLGGTVHSLVQTFLTIRLPYCGPNIIDSYFCDVPPVIKLACTDTYLTGMLIVSNSGTISLTCFLALVTSYTVILVSLRKQSAEGRRKALSTCSAHFMVVALFFGPCIFIYTRPDTSFSIDKVVSVFYTVVTPLLNPLIYTLRNEEVKSAMKQLRQRQVFFTKSY
modifications: OR4E2 consensus-c
notes: as for B1
B6: consensus OR2T1: consensus olfactory receptor polypeptide (protein)
chain: MEEYNTSSTDFTFMGLFNRKETSGLLFAIISIIFFTALMANGVMIFLIQTDLRLHTPMYFLLSHLSFIDMMYISTIVPKMLVDYLLGQRTISFVGCTAQHFLYLTLVGAEFFLLGLMAYDRYVAICNPLRYPVLMSRRVCWMIIAGSWFGGSLDGFLLTPITMSFPFCNSREINHFFCEAPAVLKLACADTALYETVMYVCCVLMLLIPFSVVIASYARILTTVHRMSSVEGRKKAFATCSSHMTVVTLFYGAAMYTYMLPHSYHKPAQDKVFSVFYTILTPMLNPLIYSLRNKDVTGALKRALGRFKGPQRVSGGVF
modifications: OR2T1 consensus-c
notes: as for B1
B7: OR4S2: original human olfactory receptor OR4S2, SEQ ID NO: 18 (protein, listed as Homo sapiens)
chain: MEKINNVTEFIFWGLSQSPEIEKVCFVVFSFFYIIILLGNLLIMLTVCLSNLFKSPMYFFLSFLSFVDICYSSVTAPKMIVDLLAKDKTISYVGCMLQLFGVHFFGCTEIFILTVMAYDRYVAICKPLHYMTIMNRETCNKMLLGTWVGGFLHSIIQVALVVQLPFCGPNEIDHYFCDVHPVLKLACTETYIVGVVVTANSGTIALGSFVILLISYSIILVSLRKQSAEGRRKALSTCGSHIAMVVIFFGPCTFMYMRPDTTFSEDKMVAVFYTIITPMLNPLIYTLRNAEVKNAMKKLWGRNVFLEAKGK
B8: consensus OR4K17: consensus olfactory receptor polypeptide (protein)
chain: MESMELLNQSQVSEFILLGLTSSQDIQFLLFALFSVIYVVTVLGNLLIVVTVFNTPNLNTPMYFLLGNLSFVDMTLASFATPKMILNLVKKQKTISFAGCFTQIFLLHLLGGVEMVLLVSMAYDRYVAICKPLHYMTIMNKKVCVLLVVTSWLLGLLHSGLQIPFVVNLPFCGPNVVDSIFCDLPLVTKLACIDTYFVQIVIVANSGMISLSCFIILLISYSLILITIRNHSSTGQSKARSTLTAHITVVILFFGPCIFIYIWPFSNHSVDKFLAVFYTIITPILNPIIYTLRNKEMKTAMKKLWRAFVNSREDT
modifications: OR4K17 consensus-c
notes: as for B1

System: HEK293 cells expressing olfactory receptor
Assay: Luciferase assay: signal to 100 μM sulfur compounds in the presence or absence of a copper ion
Type: cell-based, human
Details: 100 μM odorant
Description: A reaction solution as to each consensus olfactory receptor prepared in Examples described above was prepared according to the composition shown in Table 4, left standing for 20 minutes in a clean bench, and then added to each well of a 96-well plate (Becton, Dickinson and Company). The original olfactory receptor was used as to OR4S2. Composition shown in Table 20 was used as to OR11H2 and OR4E2. Subsequently, 100 μL of HEK293 cells suspended in DMEM (Nacalai Tesque, Inc.) was inoculated at 2×10^5 cells/cm^2 to each well, and cultured for 24 hours in an incubator kept at 37° C. and 5% CO2. Cells expressing no olfactory receptor (Mock) were provided as a control.
[…] Under a copper ion addition condition, the test substance solution was adjusted to contain 30 μM copper(II) chloride (FUJIFILM Wako Pure Chemical Corp.) in addition to the odorant. The cells were cultured for 4 hours in a CO2 incubator and the luciferase gene was expressed sufficiently in the cells. Luciferase activity was measured using Dual-Glo™ luciferase assay system (Promega Corp.) in accordance with the operation manual of the product. A luminescence value derived from firefly luciferase induced by test substance stimulation in each well of the 96-well plate was divided by a luminescence value derived from Renilla luciferase to calculate a value (fluc/hRluc) as a signal, which was then used in analysis. The signal under each transfection condition was normalized with the signal value (fluc/hRluc) under an odorant stimulation-free condition defined as 0% and the signal value (fluc/hRluc) by stimulation with 10 μM forskolin defined as 100%, and used as a response (%) in analysis.

Molecule	responsiveness to methyl mercaptan, dimethyl sulfide, dimethyl disulfide, or dimethyl trisulfide in the presence of a copper ion in comparison with that in the absence
B1	improved in responsiveness
B2	improved in responsiveness
B3	improved in responsiveness
B4	improved in responsiveness
B5	improved in responsiveness
B6	improved in responsiveness
B7	improved in responsiveness
B8	improved in responsiveness

Biological target: T1, OR2T11
Assay: not given
Details: Block E et al., Nat. Prod. Rep. 2017; cited from earlier work

Molecule	response of OR2T11
CCCCS [1-butanethiol]	responds
CCCS [1-propanethiol]	responds
CCC(C)S (stereo not drawn) [2-butanethiol]	responds
CC(C)CS [2-methyl-1-propanethiol]	responds
CC(C)(C)S [2-methyl-2-propanethiol]	responds
CCCC(C)S (stereo not drawn) [2-pentanethiol]	responds
CC(C)S [2-propanethiol]	responds
CC(C)C(C)S (stereo not drawn) [3-methyl-2-butanethiol]	responds
SC1CCCC1 [cyclopentanethiol]	responds
CCS [ethanethiol]	responds
